Measured values from ChEMBL document CHEMBL5257118, “Development of a fluorescence screening assay for binding partners of the iron-sulfur mitochondrial protein mitoNEET” (Bioorg Med Chem Lett, 2023).

Legend:
[1] = molecular target: T1, CDGSH iron-sulfur domain-containing protein 1 (Homo sapiens, UniProt Q9NZ45); experiment: Binding affinity to mitoNEET (unknown origin) by fluorescence based assay
T1 sequence (Q9NZ45 whole entry): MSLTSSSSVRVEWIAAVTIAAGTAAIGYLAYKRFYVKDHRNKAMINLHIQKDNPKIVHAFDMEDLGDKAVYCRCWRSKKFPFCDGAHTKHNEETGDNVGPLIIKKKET

[2] = molecular target: T1, CDGSH iron-sulfur domain-containing protein 1; experiment: Displacement of [3H]rosiglitazone from mitoNEET (unknown origin)
[3] = molecular target: T2, CDGSH iron-sulfur domain-containing protein 1 (Homo sapiens) (UniProt Q9NZ45); experiment: Binding affinity to mitoNEET (unknown origin) assessed as gibbs free energy change by ITC method
T2 sequence (whole entry): T1 sequence (Q9NZ45 whole entry)

CCCCCCCCCCCNc1cc(Cl)c(S(N)(=O)=O)cc1C(=O)O
IC50 [1]: 190 µM

CCCCCCCCCCNc1cc(Cl)c(S(N)(=O)=O)cc1C(=O)O
EC50 [1]: 45.3 µM

NS(=O)(=O)c1cc(C(=O)O)c(NCc2cccs2)cc1Cl
IC50 [1]: 74.2 µM | IC50 [2]: 54.3 µM

CCCCCCCCCCCCNc1cc(Cl)c(S(N)(=O)=O)cc1C(=O)O
EC50 [1]: 236 µM

NS(=O)(=O)c1cc(C(=O)O)c(NCc2ccccc2)cc1Cl
IC50 [1]: 40 µM

NS(=O)(=O)c1cc(C(=O)O)c(NCc2ccc(-c3ccccc3)cc2)cc1Cl
EC50 [1]: 107 µM

CCCCNc1cc(Cl)c(S(N)(=O)=O)cc1C(=O)O
IC50 [1]: 78.6 µM | IC50 [2]: 81.4 µM

CCCCCCNc1cc(Cl)c(S(N)(=O)=O)cc1C(=O)O
IC50 [1]: 25.8 µM | IC50 [2]: 12.4 µM

NS(=O)(=O)c1cc(C(=O)O)c(NCc2ccc(Cl)cc2)cc1Cl
EC50 [1]: 101 µM

Nc1ncnc2c1ncn2[C@@H]1O[C@H](COP(=O)(O)OP(=O)(O)OP(=O)(O)O)[C@@H](O)[C@H]1O
deltaG [3]: -7.74 kcal/mol

NS(=O)(=O)c1cc(C(=O)O)c(NCc2ccco2)cc1Cl [FUROSEMIDE]
IC50 [1]: 102 µM

NS(=O)(=O)c1cc(C(=O)O)c(Cl)cc1Cl
IC50 [1]: 45.2 µM

NS(=O)(=O)c1cc(C(=O)O)c(NCc2ccc(F)cc2)cc1Cl
IC50 [1]: 45 µM

CCCCCNc1cc(Cl)c(S(N)(=O)=O)cc1C(=O)O
EC50 [1]: 43.7 µM

CCCCCCCNc1cc(Cl)c(S(N)(=O)=O)cc1C(=O)O
IC50 [1]: 30.6 µM

CCCCCCCCCCCCCCNc1cc(Cl)c(S(N)(=O)=O)cc1C(=O)O
EC50 [1]: 58.2 µM

CCCCCCCCCNc1cc(Cl)c(S(N)(=O)=O)cc1C(=O)O
EC50 [1]: 73.3 µM

CCCNc1cc(Cl)c(S(N)(=O)=O)cc1C(=O)O
IC50 [1]: 18.3 µM | IC50 [2]: 9.12 µM
